Numbered stars: 1 amine (or outer) side, 2 acyl side, 3 side chain; on linkers, the order of the positions; unused ones are H or OH. Bridge positions count the residues as written; N and C are the ends. Square brackets hold non-standard residues; d marks the D form. Side chains are listed from the residue outwards. Peptide text beside a SMILES is read from it. * marks the point of attachment. C20 diacid = O=C(O)CCCCCCCCCCCCCCCCCCC(=O)*; C18 diacid = O=C(O)CCCCCCCCCCCCCCCCC(=O)*; γGlu = O=C(O)[C@H](CCC(=O)[*:2])N[*:1]; Hyp = O=C(O)[C@@H]1C[C@@H](O)CN1; AEEA = NCCOCCOCC(=O)O
How the values were obtained:
[1] = format: physicochemical
Method: The penicillin bottle after covering was placed in a stability test box at 40° C. Before testing, a sample was centrifuged at 10,000 rpm and 4° C. for 3 minutes, and a supernatant was taken and added into a liquid-phase sample injection bottle. The sample was detected by the liquid phase method in Example 3.

[2] = biological target: T1, human amylin receptor (Homo sapiens, UniProt O60896+P30988); test: Luciferase assay of amylin derivatives in amylin receptor/CRE-luc CHO cell line; format: cell-based; details: CHO-K1/Ga15/AMY3 CRE-luc cells, 24 hours incubation, F12 medium containing 10% FBS; read-out: EC50
T1 construct: host or cells: CHO-K1/Ga15/AMY3 cells, further stably transfected with a CRE-luciferase plasmid
T1 sequence (P30988 25-474): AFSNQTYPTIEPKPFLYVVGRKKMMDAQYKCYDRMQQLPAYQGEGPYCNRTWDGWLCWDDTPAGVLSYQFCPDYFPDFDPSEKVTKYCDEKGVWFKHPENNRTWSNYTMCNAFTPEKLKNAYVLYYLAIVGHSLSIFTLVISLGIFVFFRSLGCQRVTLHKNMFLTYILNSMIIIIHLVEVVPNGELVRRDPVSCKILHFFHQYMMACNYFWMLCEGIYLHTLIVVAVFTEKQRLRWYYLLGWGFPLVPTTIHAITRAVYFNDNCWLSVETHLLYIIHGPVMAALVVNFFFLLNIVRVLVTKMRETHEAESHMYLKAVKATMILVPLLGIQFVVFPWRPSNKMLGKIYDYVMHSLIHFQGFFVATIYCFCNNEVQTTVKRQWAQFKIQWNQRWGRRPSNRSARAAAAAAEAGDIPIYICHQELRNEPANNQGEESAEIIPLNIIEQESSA
T1 sequence (O60896 24-148 partner): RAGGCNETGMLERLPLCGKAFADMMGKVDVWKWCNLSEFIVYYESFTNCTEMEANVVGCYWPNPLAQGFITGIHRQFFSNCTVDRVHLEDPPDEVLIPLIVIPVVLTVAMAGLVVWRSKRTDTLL
Method: The experiment was intended to detect the activity or efficacy of the amylin derivatives on a human amylin receptor in vitro by luciferase assay.
50 μL of growth medium (F12 medium containing 10% FBS) was added into each well of a white 96-well plate, and the stably transfected amylin/CRE-lue CHO cells were inoculated into the white 96-well plate at a density of about 20,000 cells/well for activity determination.

[3] = Freeze-thaw stability of derivatives (freeze-thaw yield by liquid chromatography); format: physicochemical; details: for Dissolution property: appearance after dissolution at 0.2 mg/ml in 20 mM phosphate buffer solution (PB) (pH 7.0); for Freeze storage property: appearance after overnight storage at −20° C. and thawing to room temperature, 0.2 mg/ml in 20 mM PB (pH 7.0); for Freeze storage yield: concentration of polypeptide after freezing and thawing / concentration before, by liquid chromatography, −20° C. overnight
Summary of the method: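 Freeze-thaw yield is the ratio of peptide concentration after versus before one overnight −20° C freeze and room-temperature thaw, both quantified by RP-HPLC of supernatant after centrifugation. Samples were 0.2 mg/ml freeze-dried derivative in 20 mM PB, pH 7.0.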

| EC50 [2] [nM] | Dissolution property [3] | Freeze storage property [3] | Freeze storage yield [3] [%] | Structure (SMILES) | thermal stability [1] |
| --- | --- | --- | --- | --- | --- |
| 0.01 | Clear | Clear | 95.59 | CC[C@H](C)[C@H](NC(=O)[C@@H]1CCCN1C(=O)CNC(=O)[C@H](CC(C)C)NC(=O)[C@H](CC(N)=O)NC(=O)[C@H](CC(N)=O)NC(=O)[C@H](CO)NC(=O)[C@H](CO)NC(=O)[C@H](Cc1c[nH]cn1)NC(=O)[C@H](CCCNC(=N)N)NC(=O)[C@H](CC(C)C)NC(=O)[C@H](Cc1ccccc1)NC(=O)[C@H](CC(=O)O)NC(=O)[C@H](C)NC(=O)[C@H](CC(C)C)NC(=O)[C@H](CCCNC(=N)N)NC(=O)[C@H](CCC(N)=O)NC(=O)[C@@H](NC(=O)[C@H](C)NC(=O)[C@@H]1CSSC[C@H](NC(=O)[C@H](CCCCN)NC(=O)COCCOCCNC(=O)CC[C@H](NC(=O)CCCCCCCCCCCCCCCCC(=O)O)C(=O)O)C(=O)N[C@@H](CC(N)=O)C(=O)N[C@@H]([C@@H](C)O)C(=O)N[C@@H](C)C(=O)N[C@@H]([C@@H](C)O)C(=O)N1)[C@@H](C)O)C(=O)N[C@@H](CC(C)C)C(=O)N1CCC[C@H]1C(=O)N1CCC[C@H]1C(=O)N[C@H](C(=O)N[C@@H](CC(N)=O)C(=O)N[C@H](C(=O)NCC(=O)N[C@@H](CO)C(=O)N[C@@H](CC(N)=O)C(=O)N[C@H](C(=O)N1C[C@H](O)C[C@H]1C(N)=O)[C@@H](C)O)C(C)C)[C@@H](C)O [PD125] ({C18 diacid-γGlu-AEEA}-KCNTATCATQRLADFLRHSSNNLGPILPPTNVGSNT[Hyp]-NH2; disulfide 2-7 (inferred)) | – |
| 0.028 | Clear | Clear | 99.24 | CC[C@H](C)[C@H](NC(=O)[C@@H]1CCCN1C(=O)CNC(=O)[C@H](CC(C)C)NC(=O)[C@H](CC(N)=O)NC(=O)[C@H](CC(N)=O)NC(=O)[C@H](CO)NC(=O)[C@H](CO)NC(=O)[C@H](Cc1c[nH]cn1)NC(=O)[C@H](CCCNC(=N)N)NC(=O)[C@H](CC(C)C)NC(=O)[C@H](Cc1ccccc1)NC(=O)[C@H](CC(=O)O)NC(=O)[C@H](C)NC(=O)[C@H](CC(C)C)NC(=O)[C@H](CCCNC(=N)N)NC(=O)[C@H](CCC(N)=O)NC(=O)[C@@H](NC(=O)[C@H](C)NC(=O)[C@@H]1CSSC[C@H](NC(=O)[C@H](CCCCN)NC(=O)COCCOCCNC(=O)COCCOCCNC(=O)CC[C@H](NC(=O)CCCCCCCCCCCCCCCCC(=O)O)C(=O)O)C(=O)N[C@@H](CC(N)=O)C(=O)N[C@@H]([C@@H](C)O)C(=O)N[C@@H](C)C(=O)N[C@@H]([C@@H](C)O)C(=O)N1)[C@@H](C)O)C(=O)N[C@@H](CC(C)C)C(=O)N1CCC[C@H]1C(=O)N1CCC[C@H]1C(=O)N[C@H](C(=O)N[C@@H](CC(N)=O)C(=O)N[C@H](C(=O)NCC(=O)N[C@@H](CO)C(=O)N[C@@H](CC(N)=O)C(=O)N[C@H](C(=O)N1C[C@H](O)C[C@H]1C(N)=O)[C@@H](C)O)C(C)C)[C@@H](C)O [PD126] ({C18 diacid-γGlu-AEEA-AEEA}-KCNTATCATQRLADFLRHSSNNLGPILPPTNVGSNT[Hyp]-NH2; disulfide 2-7 (inferred)) | – |

The remaining lines, values behind:

| Structure (SMILES) | EC50 [2] [nM] | Dissolution property [3] | Freeze storage property [3] | Freeze storage yield [3] [%] | thermal stability [1] |
| --- | --- | --- | --- | --- | --- |
| CC[C@H](C)[C@H](NC(=O)[C@@H]1CCCN1C(=O)CNC(=O)[C@H](CC(C)C)NC(=O)[C@H](CC(N)=O)NC(=O)[C@H](CC(N)=O)NC(=O)[C@H](CO)NC(=O)[C@H](CO)NC(=O)[C@H](Cc1c[nH]cn1)NC(=O)[C@H](CCCNC(=N)N)NC(=O)[C@H](CC(C)C)NC(=O)[C@H](Cc1ccccc1)NC(=O)[C@H](CC(=O)O)NC(=O)[C@H](C)NC(=O)[C@H](CC(C)C)NC(=O)[C@H](CCCNC(=N)N)NC(=O)[C@H](CCC(N)=O)NC(=O)[C@@H](NC(=O)[C@H](C)NC(=O)[C@@H]1CSSC[C@H](NC(=O)[C@@H](N)CCCCNC(=O)CC[C@H](NC(=O)CCCCCCCCCCCCCCCCCCC(=O)O)C(=O)O)C(=O)N[C@@H](CC(N)=O)C(=O)N[C@@H]([C@@H](C)O)C(=O)N[C@@H](C)C(=O)N[C@@H]([C@@H](C)O)C(=O)N1)[C@@H](C)O)C(=O)N[C@@H](CC(C)C)C(=O)N1CCC[C@H]1C(=O)N1CCC[C@H]1C(=O)N[C@H](C(=O)N[C@@H](CC(N)=O)C(=O)N[C@H](C(=O)NCC(=O)N[C@@H](CO)C(=O)N[C@@H](CC(N)=O)C(=O)N[C@H](C(=O)N1C[C@H](O)C[C@H]1C(N)=O)[C@@H](C)O)C(C)C)[C@@H](C)O [PD070] (H-K([γGlu-C20 diacid])CNTATCATQRLADFLRHSSNNLGPILPPTNVGSNT[Hyp]-NH2; disulfide 2-7) | 0.038 | – | – | – | extremely low decrease percentage of protein concentration |
| CC[C@H](C)[C@H](NC(=O)[C@H](CCCCNC(=O)COCCOCCNC(=O)CC[C@H](NC(=O)CCCCCCCCCCCCCCCCCCC(=O)O)C(=O)O)NC(=O)CNC(=O)[C@H](CC(C)C)NC(=O)[C@H](CC(N)=O)NC(=O)[C@H](CC(N)=O)NC(=O)[C@H](CO)NC(=O)[C@H](CO)NC(=O)[C@H](Cc1c[nH]cn1)NC(=O)[C@H](CCCNC(=N)N)NC(=O)[C@H](CC(C)C)NC(=O)[C@H](Cc1ccccc1)NC(=O)[C@H](CC(=O)O)NC(=O)[C@H](C)NC(=O)[C@H](CC(C)C)NC(=O)[C@H](CCCNC(=N)N)NC(=O)[C@H](CCC(N)=O)NC(=O)[C@@H](NC(=O)[C@H](C)NC(=O)[C@@H]1CSSC[C@H](NC(=O)[C@@H](N)CCCNC(=N)N)C(=O)N[C@@H](CC(N)=O)C(=O)N[C@@H]([C@@H](C)O)C(=O)N[C@@H](C)C(=O)N[C@@H]([C@@H](C)O)C(=O)N1)[C@@H](C)O)C(=O)N[C@@H](CC(C)C)C(=O)N1CCC[C@H]1C(=O)N1CCC[C@H]1C(=O)N[C@H](C(=O)N[C@@H](CC(N)=O)C(=O)N[C@H](C(=O)NCC(=O)N[C@@H](CO)C(=O)N[C@@H](CC(N)=O)C(=O)N[C@H](C(=O)N1C[C@H](O)C[C@H]1C(N)=O)[C@@H](C)O)C(C)C)[C@@H](C)O [PD120] (H-RCNTATCATQRLADFLRHSSNNLGK([AEEA-γGlu-C20 diacid])ILPPTNVGSNT[Hyp]-NH2; disulfide 2-7 (inferred); N-terminus assumed) | 0.023 | Clear | Clear | 103.41 | – |
| CC[C@H](C)[C@H](NC(=O)[C@@H]1CCCN1C(=O)CNC(=O)[C@H](CC(C)C)NC(=O)[C@H](CC(N)=O)NC(=O)[C@H](CC(N)=O)NC(=O)[C@H](CO)NC(=O)[C@H](CO)NC(=O)[C@H](Cc1c[nH]cn1)NC(=O)[C@H](CCCNC(=N)N)NC(=O)[C@H](CC(C)C)NC(=O)[C@H](Cc1ccccc1)NC(=O)[C@H](CC(=O)O)NC(=O)[C@H](C)NC(=O)[C@H](CC(C)C)NC(=O)[C@H](CCCNC(=N)N)NC(=O)[C@H](CCC(N)=O)NC(=O)[C@@H](NC(=O)[C@H](C)NC(=O)[C@@H]1CSSC[C@H](NC(=O)[C@H](CCCCN)NC(=O)COCCOCCNC(=O)COCCOCCNC(=O)CC[C@H](NC(=O)CCCCCCCCCCCCCCCCCCC(=O)O)C(=O)O)C(=O)N[C@@H](CC(N)=O)C(=O)N[C@@H]([C@@H](C)O)C(=O)N[C@@H](C)C(=O)N[C@@H]([C@@H](C)O)C(=O)N1)[C@@H](C)O)C(=O)N[C@@H](CC(C)C)C(=O)N1CCC[C@H]1C(=O)N1CCC[C@H]1C(=O)N[C@H](C(=O)N[C@@H](CC(N)=O)C(=O)N[C@H](C(=O)NCC(=O)N[C@@H](CO)C(=O)N[C@@H](CC(N)=O)C(=O)N[C@H](C(=O)N1C[C@H](O)C[C@H]1C(N)=O)[C@@H](C)O)C(C)C)[C@@H](C)O [PD123] ({C20 diacid-γGlu-AEEA-AEEA}-KCNTATCATQRLADFLRHSSNNLGPILPPTNVGSNT[Hyp]-NH2; disulfide 2-7 (inferred)) | 0.068 | Clear | Clear | 102.11 | – |

From US20260166128A1, “HUMAN AMYLIN ANALOG, AND DERIVATIVE THEREOF AND USE THEREOF” (priority 2022, published 2026)
